{
  "source": "paper PMC11231114",
  "about": "(EJNMMI Research, 2024)",
  "key": {"dog hepatocytes": {"tested_on": "dog hepatocytes", "assay": "Metabolite profiling in cryopreserved hepatocytes (in vitro MetID)", "format": "in vitro ADME", "details": "1 µM SYN2, 37 °C", "procedure": "(§1) The metabolite profiling and characterization experiment of SYN2 molecule (in vitro MetID, Admescope) was conducted to evaluate potential metabolic pathways. In order to characterize the metabolites of SYN2, the compound was incubated in cryopreserved rat, dog and human hepatocytes. Prior to the incubation, the hepatocytes were thawed, suspended in Williams medium E and then centrifuged to receive a target density of about 1 million cells/ml. A SYN2 solution of 1 µM was then added to the hepatocyte suspension and incubated at 37 °C for 0, 30 and 60 min. The incubations were stopped by the addition of acetonitrile, then frozen and centrifuged to remove precipitated proteins. Supernatants were then analysed with ultra-performance liquid chromatography (UPLC) and high-resolution mass spectrometry (HRMS).\n(§2) Compound Discoverer (CD) was used for data mining with manual confirmation for metabolite profiling and characterization."}, "human hepatocytes": {"tested_on": "human hepatocytes", "assay": "Metabolite profiling in cryopreserved hepatocytes (in vitro MetID)", "format": "in vitro ADME", "details": "1 µM SYN2, 37 °C", "procedure": "as §1, §2"}, "rat hepatocytes": {"tested_on": "rat hepatocytes", "assay": "Metabolite profiling in cryopreserved hepatocytes (in vitro MetID)", "format": "in vitro ADME", "details": "1 µM SYN2, 37 °C", "procedure": "as §1, §2"}, "[1]": {"details": "cited from earlier work"}, "[2]": {"details": "cited from earlier work; for accumulation in cardiac tissue / heart/liver ratio / heart/lungs ratio: 1 h post-injection"}, "[3]": {"details": "available SPECT and PET tracers"}, "[4]": {"details": "human studies, exercise stress subjects"}, "[5]": {"details": "human studies, exercise stress subjects, listed as [^18F]flurpiridaz"}},
  "note": "Values joined by “and” are separate entries in the source; they are usually repeats but may differ in a detail not shown here. Identical values can stand only once. Like-named read-outs stand apart in the source and are kept apart here.",
  "data": [
    {"compound": "CNc1ccc2cc3ccc(N)cc3[n+](CCF)c2c1", "note": "[M3]", "values": [
      {"measurement": "Relative abundance of metabolites calculated as % of parent (SYN2), Dog", "setting": "dog hepatocytes; 30 min", "result": "9 % of parent"},
      {"measurement": "Relative abundance of metabolites calculated as % of parent (SYN2), Dog", "setting": "dog hepatocytes; 60 min", "result": "46 % of parent"},
      {"measurement": "Relative abundance of metabolites calculated as % of parent (SYN2), Human", "setting": "human hepatocytes; 30 min", "result": "1 % of parent"},
      {"measurement": "Relative abundance of metabolites calculated as % of parent (SYN2), Human", "setting": "human hepatocytes; 60 min", "result": "3 % of parent"},
      {"measurement": "Relative abundance of metabolites calculated as % of parent (SYN2), Rat", "setting": "rat hepatocytes; 30 min", "result": "27 % of parent"},
      {"measurement": "Relative abundance of metabolites calculated as % of parent (SYN2), Rat", "setting": "rat hepatocytes; 60 min", "result": "666 % of parent"}
    ]},
    {"compound": "[C-]#[N+]CC(C)(C)OC.[C-]#[N+]CC(C)(C)OC.[C-]#[N+]CC(C)(C)OC.[C-]#[N+]CC(C)(C)OC.[C-]#[N+]CC(C)(C)OC.[C-]#[N+]CC(C)(C)OC.[Tc]", "note": "[[^99mTc]Tc-sestamibi]", "values": [
      {"measurement": "Effective dose", "setting": "[1]; [3]", "result": 0.0079, "unit": "mSv/MBq"},
      {"measurement": "absorbed dose in kidneys", "setting": "[1]", "result": 0.036, "unit": "mSv/MBq"},
      {"measurement": "accumulation in cardiac tissue", "setting": "[2]", "result": "2.0 ± 0.3", "unit": "%ID/g"},
      {"measurement": "heart/liver ratio", "setting": "[2]", "result": "2.4 ± 0.2"},
      {"measurement": "heart/lungs ratio", "setting": "[2]", "result": "5.9 ± 0.5"}
    ]},
    {"compound": "[13NH3]", "note": "[[^13N]Ammonia]", "values": [
      {"measurement": "Effective dose", "setting": "[1]; [3]", "result": 0.002, "unit": "mSv/MBq"}
    ]},
    {"compound": "CNc1ccc2cc3ccc(N(C)C)cc3[n+](CCF)c2c1", "note": "[M1]", "values": [
      {"measurement": "Relative abundance of metabolites calculated as % of parent (SYN2), Dog", "setting": "dog hepatocytes; 30 min", "result": "34 % of parent"},
      {"measurement": "Relative abundance of metabolites calculated as % of parent (SYN2), Dog", "setting": "dog hepatocytes; 60 min", "result": "58 % of parent"},
      {"measurement": "Relative abundance of metabolites calculated as % of parent (SYN2), Human", "setting": "human hepatocytes; 30 min", "result": "10 % of parent"},
      {"measurement": "Relative abundance of metabolites calculated as % of parent (SYN2), Human", "setting": "human hepatocytes; 60 min", "result": "19 % of parent"},
      {"measurement": "Relative abundance of metabolites calculated as % of parent (SYN2), Rat", "setting": "rat hepatocytes; 30 min", "result": "94 % of parent"},
      {"measurement": "Relative abundance of metabolites calculated as % of parent (SYN2), Rat", "setting": "rat hepatocytes; 60 min", "result": "137 % of parent"}
    ]},
    {"compound": "CCOCCP(CCOCC)CCP(CCOCC)CCOCC.CCOCCP(CCOCC)CCP(CCOCC)CCOCC.[O]=[99Tc+]=[O]", "note": "[[^99mTc]Tc-tetrofosmin]", "values": [
      {"measurement": "Effective dose", "setting": "[1]; [3]", "result": 0.0069, "unit": "mSv/MBq"}
    ]},
    {"compound": "[15OH2]", "note": "[[^15O]H2O]", "values": [
      {"measurement": "Effective dose", "setting": "[1]; [3]", "result": 0.0011, "unit": "mSv/MBq"}
    ]},
    {"compound": "CN(C)c1ccc2cc3ccc(N(C)C)cc3nc2c1", "note": "[M4]", "values": [
      {"measurement": "Relative abundance of metabolites calculated as % of parent (SYN2), Dog", "setting": "dog hepatocytes; 30 min", "result": "Trace"},
      {"measurement": "Relative abundance of metabolites calculated as % of parent (SYN2), Human", "setting": "human hepatocytes; 30 min", "result": "1 % of parent"},
      {"measurement": "Relative abundance of metabolites calculated as % of parent (SYN2), Human", "setting": "human hepatocytes; 60 min", "result": "1 % of parent"},
      {"measurement": "Relative abundance of metabolites calculated as % of parent (SYN2), Rat", "setting": "rat hepatocytes; 30 min", "result": "Trace"}
    ]},
    {"compound": "[Cl][201Tl]", "note": "[[^201Tl]Thallium chloride]", "values": [
      {"measurement": "Effective dose", "setting": "[1]; [3]", "result": 0.14, "unit": "mSv/MBq"}
    ]},
    {"compound": "CC(C)(C)n1ncc(OCc2ccc(COCC[18F])cc2)c(Cl)c1=O", "note": "[[^18F]Flurpiridaz]", "values": [
      {"measurement": "Effective dose", "setting": "[1]; [3]", "result": 0.015, "unit": "mSv/MBq"},
      {"measurement": "Absorbed dose per administrated activity, Adrenals", "setting": "[1]; [4]", "result": "1.40E-02", "unit": "mSv/MBq"},
      {"measurement": "Absorbed dose per administrated activity, Brain", "setting": "[1]; [4]", "result": "1.10E-02", "unit": "mSv/MBq"},
      {"measurement": "Absorbed dose per administrated activity, Breasts", "setting": "[1]; [4]", "result": "1.00E-02", "unit": "mSv/MBq"},
      {"measurement": "Absorbed dose per administrated activity, Gallbladder Wall", "setting": "[1]; [4]", "result": "1.50E-02", "unit": "mSv/MBq"},
      {"measurement": "Absorbed dose per administrated activity, Heart Wall", "setting": "[1]; [4]", "result": "3.90E-02", "unit": "mSv/MBq"},
      {"measurement": "Absorbed dose per administrated activity, Kidneys", "setting": "[1]; [4]", "result": "2.70E-02", "unit": "mSv/MBq"},
      {"measurement": "Absorbed dose per administrated activity, Liver", "setting": "[1]; [4]", "result": "1.50E-02", "unit": "mSv/MBq"},
      {"measurement": "Absorbed dose per administrated activity, Lower Large Intestine Wall", "setting": "[1]; [4]", "result": "1.40E-02", "unit": "mSv/MBq"},
      {"measurement": "Absorbed dose per administrated activity, Lungs", "setting": "[1]; [4]", "result": "1.20E-02", "unit": "mSv/MBq"},
      {"measurement": "Absorbed dose per administrated activity, Muscle", "setting": "[1]; [4]", "result": "1.20E-02", "unit": "mSv/MBq"},
      {"measurement": "Absorbed dose per administrated activity, Osteogenic Cells", "setting": "[1]; [4]", "result": "2.00E-02", "unit": "mSv/MBq"},
      {"measurement": "Absorbed dose per administrated activity, Ovaries", "setting": "[1]; [4]", "result": "1.40E-02", "unit": "mSv/MBq"},
      {"measurement": "Absorbed dose per administrated activity, Pancreas", "setting": "[1]; [4]", "result": "1.50E-02", "unit": "mSv/MBq"},
      {"measurement": "Absorbed dose per administrated activity, Red Marrow", "setting": "[1]; [4]", "result": "1.50E-02", "unit": "mSv/MBq"},
      {"measurement": "Absorbed dose per administrated activity, Skin", "setting": "[1]; [4]", "result": "9.00E-03", "unit": "mSv/MBq"},
      {"measurement": "Absorbed dose per administrated activity, Small Intestine", "setting": "[1]; [4]", "result": "1.40E-02", "unit": "mSv/MBq"},
      {"measurement": "Absorbed dose per administrated activity, Spleen", "setting": "[1]; [4]", "result": "1.30E-02", "unit": "mSv/MBq"},
      {"measurement": "Absorbed dose per administrated activity, Stomach Wall", "setting": "[1]; [4]", "result": "2.40E-02", "unit": "mSv/MBq"},
      {"measurement": "Absorbed dose per administrated activity, Testes", "setting": "[1]; [4]", "result": "1.10E-02", "unit": "mSv/MBq"},
      {"measurement": "Absorbed dose per administrated activity, Thymus", "setting": "[1]; [4]", "result": "1.30E-02", "unit": "mSv/MBq"},
      {"measurement": "Absorbed dose per administrated activity, Thyroid", "setting": "[1]; [4]", "result": "1.40E-02", "unit": "mSv/MBq"},
      {"measurement": "Absorbed dose per administrated activity, Total Body", "setting": "[1]; [4]", "result": "1.20E-02", "unit": "mSv/MBq"},
      {"measurement": "Absorbed dose per administrated activity, Upper Large Intestine Wall", "setting": "[1]; [4]", "result": "1.40E-02", "unit": "mSv/MBq"},
      {"measurement": "Absorbed dose per administrated activity, Urinary Bladder Wall", "setting": "[1]; [4]", "result": "1.60E-02", "unit": "mSv/MBq"},
      {"measurement": "Absorbed dose per administrated activity, Uterus", "setting": "[1]; [4]", "result": "1.40E-02", "unit": "mSv/MBq"},
      {"measurement": "Effective Dose Equivalent", "setting": "[1]; [4]", "result": "1.60E-02", "unit": "mSv/MBq"},
      {"measurement": "Effective dose", "setting": "[1]; [4]", "result": "1.50E-02", "unit": "mSv/MBq"},
      {"measurement": "Absorbed dose per administrated activity, Heart Wall", "setting": "[1]; [5]", "result": "0.0390 mSv/MBq and 0.039 mSv/MBq"},
      {"measurement": "Absorbed dose per administrated activity, Kidneys", "setting": "[1]; [5]", "result": 0.027, "unit": "mSv/MBq"},
      {"measurement": "Absorbed dose per administrated activity, Stomach Wall", "setting": "[1]; [5]", "result": 0.024, "unit": "mSv/MBq"},
      {"measurement": "Effective dose", "setting": "[1]; [5]", "result": 0.0150, "unit": "mSv/MBq"},
      {"measurement": "accumulation in cardiac tissue", "setting": "[2]", "result": "3.3 ± 0.3", "unit": "%ID/g"},
      {"measurement": "heart/liver ratio", "setting": "[2]", "result": "3.7 ± 0.2"},
      {"measurement": "heart/lungs ratio", "setting": "[2]", "result": "12.7 ± 1.4"},
      {"measurement": "heart/blood ratio", "setting": "[2]", "result": 13}
    ]},
    {"compound": "[82Rb+].[Cl-]", "note": "[[^82Rb]Rubidium chloride]", "values": [
      {"measurement": "Effective dose", "setting": "[1]; [3]", "result": 0.0011, "unit": "mSv/MBq"}
    ]}
  ]
}
